In experiment [1] the target is T1, α-glucosidase (Saccharomyces cerevisiae, UniProt P53341). Briefly: α-Glucosidase inhibitory assay. In kind it is biochemical.
In experiment [2] the target is T1, α-glucosidase. Description: Kinetic studies. It counts as biochemical. To be noted: for type of inhibition: Lineweaver-Burk plots, Km increases, Vmax constant.

In general, IC50 refers to the concentration needed to halve the response being measured. A low value points to greater potency in that assay. One may read the Ki as a dissociation constant, usually derived from enzyme kinetics or from competition with a known ligand. Lower therefore signals a stronger hold on the target.

T1 sequence (P53341 whole entry): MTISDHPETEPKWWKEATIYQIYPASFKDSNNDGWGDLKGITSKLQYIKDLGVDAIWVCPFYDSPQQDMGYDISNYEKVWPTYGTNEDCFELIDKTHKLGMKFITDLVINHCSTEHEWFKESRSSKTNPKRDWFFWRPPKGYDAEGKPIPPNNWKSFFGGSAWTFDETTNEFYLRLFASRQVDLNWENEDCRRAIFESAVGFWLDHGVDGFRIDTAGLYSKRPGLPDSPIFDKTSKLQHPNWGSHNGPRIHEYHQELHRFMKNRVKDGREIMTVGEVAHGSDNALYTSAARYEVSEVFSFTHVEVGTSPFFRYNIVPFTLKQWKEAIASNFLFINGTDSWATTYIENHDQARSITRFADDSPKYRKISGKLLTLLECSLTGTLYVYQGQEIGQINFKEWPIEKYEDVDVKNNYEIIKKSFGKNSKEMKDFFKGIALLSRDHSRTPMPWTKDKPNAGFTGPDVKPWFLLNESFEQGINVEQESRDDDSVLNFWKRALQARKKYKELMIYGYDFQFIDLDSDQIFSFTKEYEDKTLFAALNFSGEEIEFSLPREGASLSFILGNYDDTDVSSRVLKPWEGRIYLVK

`CN(C)c1ccc(C(=NN=Cc2ccc(O)cc2O)c2ccc(N(C)C)cc2)cc1` [Compound 2, 4-{[bis-(4-dimethylamino-phenyl)-methylene]-hydrazonomethyl}-benzene-1,3-diol] came in with a half-maximal inhibitory concentration (IC50) in experiment [1] of 680 ± 290 nM.
`CN(C)c1ccc(C(=NN=Cc2cccc(O)c2O)c2ccc(N(C)C)cc2)cc1` [Compound 4, 3-{[bis-(4-dimethylamino-phenyl)-methylene]-hydrazonomethyl}-benzene-1,2-diol]: in experiment [1], the half-inhibitory concentration (IC50) turned out to be 330 nM.
On to `CN(C)c1ccc(C(=NN=Cc2cc([N+](=O)[O-])ccc2O)c2ccc(N(C)C)cc2)cc1` [Compound 8, 2-{[bis-(4-dimethylamino-phenyl)-methylene]-hydrazonomethyl}-4-nitro-phenol], for which the IC50 in experiment [1] worked out at 280 nM. Also, in experiment [2], the affinity corresponds to a Ki of 2790 ± 11 nM and the type of inhibition result is reported as “competitive”.
In turn, `COc1cccc(C=NN=C(c2ccc(N(C)C)cc2)c2ccc(N(C)C)cc2)c1O` [Compound 9, 2-{[bis-(4-dimethylamino-phenyl)-methylene]-hydrazonomethyl}-6-methoxy-phenol] returned a 50% inhibitory concentration (IC50) in experiment [1] of 280 nM. In addition, in experiment [2], the affinity, expressed as Ki, was 3640 ± 12 nM and the type of inhibition entry is given as “competitive”.
With `CN(C)c1ccc(C(=NN=Cc2cccc(C=O)c2)c2ccc(N(C)C)cc2)cc1` [Compound 15, 3-{[bis-(4-dimethylamino-phenyl)-methylene]-hydrazonomethyl}-benzaldehyde], in experiment [1], 490 ± 1430 nM corresponded to half-maximal inhibition (IC50).
For the compound `CN(C)c1ccc(C(=NN=Cc2ccc(O)c(O)c2)c2ccc(N(C)C)cc2)cc1` [Compound 17, 4-{[bis-(4-dimethylamino-phenyl)-methylene]-hydrazonomethyl}-benzene-1,2-diol], in experiment [1], the concentration for half-maximal inhibition (IC50) worked out at 350 nM.
Compound `CN(C)c1ccc(C(=NN=Cc2ccc(O)cc2)c2ccc(N(C)C)cc2)cc1` [Compound 26, 4-{[bis-(4-dimethylamino-phenyl)-methylene]-hydrazonomethyl}-phenol] came in with an IC50 in experiment [1] of 820 ± 1120 nM.

Source of the values: article PMC10757017 (Heliyon, 2023).
